Experimental data taken from patent US9113629B2, “4-amino-6-(4-substituted-phenyl)-picolinates and 6-amino-2-(4-substituted-phenyl)-pyrimidine-4-carboxylates and their use as herbicides” (DOW AGROSCIENCES LLC, priority 2013, dated 2015).
Where two headings read alike, the source gives them in different places.

Assays:
[1] = tested on: Key Broadleaf Weed and Crop Species; assay: Post-emergent Test II herbicidal activity (Table 5); format: in vivo; details: post-emergence, 336 h, 14 days after application; for pest or weed control at 70 g/ha: application rate 70 g ai/ha; for pest or weed control at 140 g/ha: application rate 140 g ai/ha
Summary of the method: (§1)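 Compounds, dissolved in 97:3 acetone/DMSO and diluted into an aqueous carrier containing crop oil concentrate and Triton X-155, are applied over the top of young plants at 187 L/ha. Injury is scored visually at 14 d, 0% meaning no effect and 100% complete kill.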

[2] = tested on: Key Grass and Sedge Weeds as well as Grass Crops; assay: Post-emergent Test II herbicidal activity (Table 6); format: in vivo; details: post-emergence, 336 h; for pest or weed control at 70 g/ha: 70 g ai/ha; for pest or weed control at 140 g/ha: 140 g ai/ha
Summary of the method: as §1

[3] = ABUTH: velvetleaf (Abutilon theophrasti), read-out: Visual Growth Reduction (%) 14 Days After Application, ABUTH
[4] = AMARE: redroot pigweed (Amaranthus retroflexus), read-out: Visual Growth Reduction (%) 14 Days After Application, AMARE
[5] = BRSNN: oilseed-rape, canola (Brassica napus), read-out: Visual Growth Reduction (%) 14 Days After Application, BRSNN
[6] = CHEAL: lambsquarters (Chenopodium album), read-out: Visual Growth Reduction (%) 14 Days After Application, CHEAL
[7] = EPHHL: wild poinsettia (Euphorbia heterophylla), read-out: Visual Growth Reduction (%) 14 Days After Application, EPHHL
[8] = HELAN: sunflower (Helianthus annuus), read-out: Visual Growth Reduction (%) 14 Days After Application, HELAN
[9] = VIOTR: wild pansy (Viola tricolor), read-out: Visual Growth Reduction (%) 14 Days After Application, VIOTR
[10] = CYPES: yellow nutsedge (Cyperus esculentus), read-out: Visual Growth Reduction (%) 14 Days After Application, CYPES
[11] = DIGSA: crabgrass (Digitaria sanguinalis), read-out: Visual Growth Reduction (%) 14 Days After Application, DIGSA
[12] = ECHCG: barnyardgrass (Echinochloa crus-galli), read-out: Visual Growth Reduction (%) 14 Days After Application, ECHCG
[13] = ORYSA: rice (Oryza sativa), crop, read-out: Visual Growth Reduction (%) 14 Days After Application, ORYSA
[14] = SETFA: giant foxtail (Setaria faberi), read-out: Visual Growth Reduction (%) 14 Days After Application, SETFA
[15] = SORVU: grain sorghum (Sorghum vulgare), read-out: Visual Growth Reduction (%) 14 Days After Application, SORVU
[16] = TRZSS (wheat, Triticum aestivum), crop, read-out: Visual Growth Reduction (%) 14 Days After Application, TRZSS
[17] = ZEAMX: maize, corn (Zea mays), crop, read-out: Visual Growth Reduction (%) 14 Days After Application, ZEAMX

Row | Structure (SMILES) | pest or weed control at 70 g/ha [1, 3] [%] | pest or weed control at 140 g/ha [1, 3] [%] | pest or weed control at 70 g/ha [1, 4] [%] | pest or weed control at 140 g/ha [1, 4] [%] | pest or weed control at 70 g/ha [1, 5] [%] | pest or weed control at 140 g/ha [1, 5] [%] | pest or weed control at 70 g/ha [1, 6] [%] | pest or weed control at 140 g/ha [1, 6] [%] | pest or weed control at 70 g/ha [1, 7] [%] | pest or weed control at 140 g/ha [1, 7] [%] | pest or weed control at 70 g/ha [1, 8] [%] | pest or weed control at 140 g/ha [1, 8] [%] | pest or weed control at 70 g/ha [1, 9] [%] | pest or weed control at 140 g/ha [1, 9] [%] | pest or weed control at 70 g/ha [2, 10] [%] | pest or weed control at 140 g/ha [2, 10] [%] | pest or weed control at 70 g/ha [2, 11] [%] | pest or weed control at 140 g/ha [2, 11] [%] | pest or weed control at 70 g/ha [2, 12] [%] | pest or weed control at 140 g/ha [2, 12] [%] | further results
1 | COC(=O)c1nc(-c2ccc(C#N)cc2)c(F)c(N)c1Cl [Compound 142] | 95 to 100 | 95 to 100 | 95 to 100 | 95 to 100 | 0 to 29 | 0 to 29 | 95 to 100 | 95 to 100 | 95 to 100 | 95 to 100 | 95 to 100 | 95 to 100 | 75 to 84 | 85 to 94 | 75 to 84 | 85 to 94 | 60 to 74 | 60 to 74 | 75 to 84 | 85 to 94 | pest or weed control at 70 g/ha [2, 13]: 0 to 29%; pest or weed control at 140 g/ha [2, 13]: 0 to 29%; pest or weed control at 70 g/ha [2, 14]: 0 to 29%; pest or weed control at 140 g/ha [2, 14]: 0 to 29%; pest or weed control at 70 g/ha [2, 15]: 45 to 59%; pest or weed control at 140 g/ha [2, 15]: 45 to 59%; pest or weed control at 70 g/ha [2, 16]: 0 to 29%; pest or weed control at 140 g/ha [2, 16]: 30 to 44%; pest or weed control at 70 g/ha [2, 17]: 45 to 59%; pest or weed control at 140 g/ha [2, 17]: 60 to 74%
2 | Nc1c(F)c(-c2ccc(I)cc2)nc(C(=O)O)c1Cl [Compound 45, 4-amino-3-chloro-5-fluoro-6-(4-iodophenyl)picolinic acid] | 95 to 100 | 95 to 100 | 95 to 100 | 95 to 100 | 95 to 100 | 95 to 100 | 95 to 100 | 95 to 100 | 95 to 100 | 95 to 100 | 95 to 100 | 95 to 100 | 85 to 94 | 95 to 100 | 85 to 94 | 95 to 100 | 85 to 94 | 85 to 94 | 95 to 100 | 95 to 100 | pest or weed control at 70 g/ha [2, 13]: 45 to 59%; pest or weed control at 140 g/ha [2, 13]: 60 to 74%; pest or weed control at 70 g/ha [2, 14]: 85 to 94%; pest or weed control at 140 g/ha [2, 14]: 85 to 94%; pest or weed control at 70 g/ha [2, 15]: 60 to 74%; pest or weed control at 140 g/ha [2, 15]: 95 to 100%; pest or weed control at 70 g/ha [2, 16]: 60 to 74%; pest or weed control at 140 g/ha [2, 16]: 75 to 84%; pest or weed control at 70 g/ha [2, 17]: 85 to 94%; pest or weed control at 140 g/ha [2, 17]: 95 to 100%
